In PMC6268492, “Synthesis and Antiangiogenic Activity of Novel Gambogic Acid Derivatives” (Molecules, 2012):
Where “and” joins values, the source holds several entries; their conditions need not be identical. Equal entries are not always repeated. Where two headings read alike, the source gives them in different places.

Columns and labels:
[1] = system: transgenic fli-1: enhanced GFP zebrafish embryos; assay: Zebrafish embryo assay: antiangiogenic effects; assay type: in vivo, zebrafish (Danio rerio); conditions: zebrafish embryos
Method: As stated previously, zebrafish is regarded as a powerful tool in the study of human diseases. […] In this study, all GA derivatives were incubated with the transgenic friend leukemia integration-1 (fli-1): enhanced GFP zebrafish embryos which carried a fli-1 promoter which can drive the expression of GFP in the whole endothelium.
Figure 1 Effects on neovascularization in zebrafish embryos. The transgenic fli-1: enhanced GFP zebrafish embryos in embryo water (0.2 g/L of instant ocean salt in distilled water) incubated with 1 μM of compounds at 6 h postfertilization (hpf) for 24 h. Zebrafish embryos were imaged (Imager.Z1, magnification: left, 40×; right, 100×).
Using transgenic fli-1: enhanced GFP zebrafish embryos, we investigated the effects of all compounds on angiogenesis. […] At about 6 h post fertilization (hpf), the embryos were sorted in the 6-well plate (six embryos/well), removing dead and unhealthy embryos. Then the embryos were treated with the indicated concentrations of compounds which were added into embryo water. After incubation for 24 or 48 h, the embryos were anesthetized using 0.05% 2-phenoxyethanol in embryo water, quantified and photographed.

[2] = system: zebrafish embryos; assay: Zebrafish toxicity: heart rates; assay type: in vivo; conditions: for Heart rates of zebrafish: control 117 beats/min
Method: (§1) To investigate the toxicity of these four compounds, the heart rates and the mortality rates of zebrafish embryos were recorded (Table 2 and Table 3). The heart rate of zebrafish in the control group was 117 beats/min.
(§2) Using transgenic fli-1: enhanced GFP zebrafish embryos, we investigated the effects of all compounds on angiogenesis. Zebrafish embryos were generated by natural pairwise mating and raised at 28.5 °C in embryo water (0.2 g/L of Instant Ocean Salt in distilled water). At about 6 h post fertilization (hpf), the embryos were sorted in the 6-well plate (six embryos/well), removing dead and unhealthy embryos. Then the embryos were treated with the indicated concentrations of compounds which were added into embryo water. After incubation for 24 or 48 h, the embryos were anesthetized using 0.05% 2-phenoxyethanol in embryo water, quantified and photographed.

[3] = system: zebrafish embryos; assay: Zebrafish toxicity: mortality rate; assay type: in vivo, zebrafish (Danio rerio)
Method: as §1, §2

[4] = system: HUVECs; assay: Wound-healing migration assay; assay type: cell-based, Human; conditions: 1 μM, 24 h, control = 100%
Description: The migration of ECs is an important step of angiogenesis. The continuity of vascular ECs is the most important factor in preserving vessel wall function. Migration of ECs is essential to the recovery of this continuity after vascular ECs injury. […] As illustrated in Figure 3(I), the HUVECs migrated into the wound area actively (between the two white dash lines) under the compound-free condition (control).
Figure 3 Effects on the HUVECs migration. (I) HUVECs suspended in serum-free Dulbecco’s Modified Eagle Medium (DMEM) containing compounds (0.25 or 0.5 or 1 μM) for 24 h were photographed under a phase contrast microscopy (Olympus CKX41, magnification: 50×). Control was treated with serum-free DMEM which was consided as resulting in 100%; (II) Migration rates of compounds on the HUVECs. Data represented the mean standard deviation (SD) from three independent experiments. *** p < 0.005compared with control.
HUVECs were seeded in 6-well plates precoated with 0.1% gelatin, and grown overnight to confluence. The monolayer cells were wounded by scratching with 10 μL pipet tips and washed twice with serum-free DMEM (Dulbecco’s modified eagle medium) to remove the nonadherent cells and then replaced by serum-free DMEM with the indicated concentrations of compounds for 24 h. Images were taken at 0 h and 24 h independently after incubation at 37 °C, 5% CO2 environment. The migrated HUVECs were manually counted. The values were observed from four randomly selected fields.

[5] = system: HUVECs; assay: Matrigel tube formation assay; assay type: cell-based, Human; conditions: Homo sapiens, HUVEC, 0.5 μM, 6 h, vs control, read-out: inhibitory rates of tube formation
Method: In the later stages of angiogenesis, tube formation of ECs is also an important process. Thus, a Matrigel tube formation assay was applied to assess the ability of HUVECs to form ECs vascular structures which is believed to be significant in new vessel formation.
Figure 4 Effects on the HUVECs tube formation. (I) HUVECs (1 × 10^4 cells) suspended in DMEM containing each compound (0.5 or 1 or 2 μM) were added to the Matrigel. Control was treated with DMEM alone. After incubation for 6 h at 37 °C, capillary networks were photographed and quantified (Olympus CKX41, magnification: 100×); (II) Rates of the HUVECs tube formation. The number of intact tubes was counted in five randomly chosen regions and expressed as the percentage of the control. The results were expressed as mean ±SD. ** p < 0.01; *** p < 0.005 compared with control.
Matrigel was dissolved at 4 °C overnight. Each well of prechilled 96-well plates was coated with 50 μL of Matrigel, incubated and solidified at 37 °C for 45 min. After removing the unsolidified fluid, HUVECs at the density of 1 × 10^4 were cultured in DMEM containing the indicated concentrations of compounds for 6 h. Controls were treated with the DMEM alone. Images were digitally captured and quantitatively analyzed (Olympus). The numbers and line lengths of the circular tubules formed by the cells were calculated manually. The values were observed from five randomly selected fields.

[6] = system: A549; assay: MTT assay, cell proliferation; assay type: cell-based; conditions: Homo sapiens, 24 h, read-out: IC50, inhibition of cell proliferation
Method: (§3) HepG2, HCT116, HeLa and LO2 cell lines were cultured in DMEM containing 10% fetal bovine serum (FBS), 100 IU/mL penicillin and 100 µg/mL streptomycin; A549 and K562 cell lines were cultured in RPMI 1640 medium containing 10% fetal bovine serum (FBS), 100 IU/mL penicillin and 100 µg/mL streptomycin; Human umbilical vein endothelial cells (HUVECs) were cultured on gelatin-coated culture flasks in M-199 medium with 20% fetal bovine serum (FBS), 2 ng/mL VEGF, 10 ng/mL basic FGF, 100 IU/mL penicillin, and 100 μg/mL streptomycin; all of them were obtained from the American Type Culture Collection (ATCC) and all cell lines were incubated in an atmosphere of 5% CO2 at 37 °C.
(§4) Cells were treated with various concentrations of compound in 96-well culture plates for 24 h in final volumes of 200 μL (5 × 10^3 cells/well). Then 20 μL of MTT solution (5 mg/mL) was added to each well, and cells were incubated for an additional 3 h. Then the medium was carefully removed, and precipitates were dissolved in 150 μL of DMSO, shaken mechanically for 30 min, and then absorbance values at a wavelength of 570 nm were taken on a spectrophotometer (Molecular Devices, Sunnyvale, CA, USA). Values were calculated using percentage of growth versus untreated control. The IC50 was defined as the concentration that caused 50% inhibition of cell proliferation, and was calculated by SAS statistical software.

[7] = system: HCT116; assay: MTT assay, cell proliferation; assay type: cell-based; conditions: Homo sapiens, HCT-116, 24 h, read-out: IC50, inhibition of cell proliferation
Method: as §3, §4

[8] = system: HeLa; assay: MTT assay, cell proliferation; assay type: cell-based; conditions: Homo sapiens, 24 h, read-out: IC50, inhibition of cell proliferation
Method: as §3, §4

[9] = system: HepG2; assay: MTT assay, cell proliferation; assay type: cell-based; conditions: Homo sapiens, 24 h, read-out: IC50, inhibition of cell proliferation
Method: as §3, §4

[10] = system: K562; assay: MTT assay, cell proliferation; assay type: cell-based; conditions: Homo sapiens, 24 h, read-out: IC50, inhibition of cell proliferation
Method: as §3, §4

[11] = system: HUVEC; assay: MTT assay, cell proliferation; assay type: cell-based, Human; conditions: Homo sapiens, 24 h, read-out: IC50, inhibition of cell proliferation
Method: Inhibiting the proliferation of ECs is another important strategy for antiangiogenesis. […] As the exposure time of these derivatives was 24 h in the migration assay and 6 h in the tube formation assay, the effect of the incubation for 24 h in the presence of these compounds on HUVECs proliferation was then tested. Cell viability was assessed by the MTT method. We can see from Table 4 that these compounds had different antiproliferative activities.
as §3, §4

[12] = system: LO2; assay: MTT assay, cytotoxicity; assay type: cell-based; conditions: Homo sapiens, L02, 24 h, read-out: IC50, inhibition of cell proliferation
Method: as §3, §4

[13] = Danio rerio, read-out: antiangiogenic rates
[14] = Danio rerio, vs vehicle (0.05% DMSO), read-out: Anti-angiogenic phenotype

Row | SMILES | inhibition in vivo at 1 µM [1, 13] [%] | inhibition in vivo at 1 µM [1, 14] [%] | Heart rates of zebrafish ([2]; 2.5 μM) | Heart rates of zebrafish ([2]; 10 μM) | Mortality rates ([3]; 1 μM, zebrafish) [%] | Mortality rates ([3]; 2.5 μM, zebrafish) [%] | Mortality rates ([3]; 10 μM, zebrafish) [%] | migratory rates [4] [%] | inhibition at 0.5 µM [5] [%] | IC50 [6] [nM] | IC50 [7] [nM] | IC50 [8] [nM] | IC50 [9] [nM] | IC50 [10] [nM] | IC50 [11] [nM] | IC50 [12] [nM] | also measured
1 | CC(=O)Nc1ccc(NC(=O)/C(C)=C\CC23OC(C)(C)C4CC(C=C5C(=O)c6c(O)c7c(c(CC=C(C)C)c6OC542)OC(C)(CCC=C(C)C)C=C7)C3=O)cc1 (stereo not shown) [Compound 35, N-(4-acetamidophenyl) gambogamide] | 25 to 50 | 25 to 50 | 57 ± 2.61 beats/min | 45 ± 4.95 beats/min | 3.3 ± 5.77 | 10 ± 0.00 | 16.7 ± 5.77 | 3.6 | 37 | 500 ± 50 | 400 ± 20 | 490 ± 20 | 270 ± 50 | 260 ± 10 | 200 ± 10 | 1170 ± 410 | inhibition in vivo at 2.5 µM ([1]; Danio rerio, 2.5 μM, vs vehicle (0.05% DMSO), read-out: Anti-angiogenic phenotype): 50 to 75%; inhibition in vivo at 10 µM ([1]; Danio rerio, 10 μM, vs vehicle (0.05% DMSO), read-out: Anti-angiogenic phenotype): > 75%; heart rates relative to control group ([2]; 2.5 µM and 10 µM, zebrafish): about half of the control group; Mortality rates ([3]; 2.5 µM and 10 µM, zebrafish embryos): less than 20%
2 | CC(C)=CCC[C@]1(C)C=Cc2c(O)c3c(c(CC=C(C)C)c2O1)O[C@]12C(=C[C@@H]4C[C@H]1C(C)(C)O[C@@]2(C/C=C(/C)C(=O)O)C4=O)C3=O [GA, Gambogic acid] | 25 to 50 | 25 to 50 | Dead ^b | Dead | 20 ± 0.00 | 73.3 | 100 | 2.2 | 26.1 | 940 ± 30 | 590 ± 30 | 1140 ± 60 | 840 ± 40 | 490 ± 30 | 270 ± 10 | 890 ± 80 | Anti-angiogenic phenotype ([1]; 2.5 μM, vs vehicle (0.05% DMSO)): Dead ^b; Anti-angiogenic phenotype ([1]; 10 μM, vs vehicle (0.05% DMSO)): Dead; Heart rates of zebrafish ([2]; 1 μM): 36 beats/min and 36 ± 3.32 beats/min; Mortality rates ([3]; 2.5 μM, zebrafish, listed as A): 73.3 ± 5.77%
